This assay deals with T1, protein kinase Cα (PKCα) (Homo sapiens, UniProt P17252).
T1 construct: isolate and photo-release endogenous PKCa from the undiluted detergent fractionated HeLa cell extracts; endogenous in cells; host or cells: HeLa cells (ATCC)
Description: PMA-mediated PKCα sub-cellular translocation, measured by kinase activity after isolation with photocleavable antibodies. In kind it is cell-based. The conditions noted are these: cultured HeLa cells stimulated with 200 nM PMA for 5 min, detergent-fractionated, based on kinase activity, n=4. Here is the method:
FIG. 20. Phorbol ester (PMA) mediated protein kinase Cα (PKCα) sub-cellular translocation as measured by functional activity following isolation with photocleavable antibodies. Cultured HeLa cells were stimulated with 200 nM PMA for 5 min and detergent fractionated into the cytosol and membrane compartments prior to isolation and purification with the photocleavable antibodies.
Cultured HeLa cells (ATCC; Manassas, Va.) were stimulated for 5 min with 200 nM Phorbol-12-Myristate-13-Acetate (PMA; EMD Biosciences, Inc., San Diego, Calif.) and subsequently detergent fractionated into sub-cellular compartments according to reported procedures [Ramsby et al. (1994) Electrophoresis 15, 265-277; Ramsby & Makowski. (1999) Methods Mol Biol 112, 53-66; Chiang et al. (2000) J Biochem Biophys Methods 46, 53-68]. PMA is a potent activator of PKCα and is well known to cause translocation of the kinase from the cytosolic to the membrane sub-cellular compartments [Ross & Joyner. (1997) Endothelium 5, 321-332; Bazan & Rapoport. (1996) JPharmacol Toxicol Methods 36, 87-95; Yazlovitskaya & Melnykovych. (1995) Cancer Lett 88, 179-183]. […]

With `CCCCCCCCCCCCCC(=O)O[C@@H]1[C@@H](C)[C@@]2(O)[C@@H](C=C(CO)C[C@]3(O)C(=O)C(C)=C[C@@H]23)[C@@H]2C(C)(C)[C@]12OC(C)=O` [PMA, Phorbol-12-Myristate-13-Acetate], the “relative sub-cellular distribution of PKCα, membrane” value (baseline 21±2% membrane) is on record as 84±3%. For the same molecule, the “relative sub-cellular distribution of PKCα, cytosol” value (baseline 79±7% cytosol) was determined as 16±4%.

The values are drawn from patent publication US20090270278A1, “Methods and compounds for making arrays” (AMBERGEN, Inc., priority 2007, published 2009).
